For orientation: IC50 means the concentration at which inhibition is half-maximal.

Each structure is given as a SMILES string.

Our source for the IC50 values is ChEMBL document CHEMBL1148145, “2,3,4-Trimethyl-5,7-dihydroxy-2,3-dihydrobenzofuran, a novel antioxidant, from Penicillium citrinum F5” (J Nat Prod, 2002).

The subject of this test is Radical scavenging activity. In words: Antioxidant activity assessed as DPPH radical scavenging activity after 30 mins by spectrophotometry. The test is classed as functional. (In general: Loss of DPPH colour is used to gauge radical scavenging.)
`O=C1O[C@H]([C@@H](O)CO)C(O)=C1O` [ASCORBIC ACID]: the half-maximal inhibitory concentration (IC50) is 8.92 µM.
In the case of `CC(C)(Sc1cc(C(C)(C)C)c(O)c(C(C)(C)C)c1)Sc1cc(C(C)(C)C)c(O)c(C(C)(C)C)c1` [PROBUCOL] it was 36.1 µM; in that of `O=C(O)c1cc(O)ccc1O` [GENTISIC ACID], 4.26 µM; in that of `Cc1c(C)c2c(c(C)c1O)CCC(C)(C(=O)O)O2` (stereo not given) [TROLOX], 8.77 µM.
Take `Cc1c(O)cc(O)c2c1[C@@H](C)[C@H](C)O2`: the IC50 turned out to be 10.4 µM.
